Patent US12391737B2, “Soluble NPY2 receptor agonists” (Boehringer Ingelheim International GmbH, priority 2020, dated 2025)

Experiments:
[1] = molecular target: T1, Human Neuropeptide Y2 Receptor (Homo sapiens, UniProt P49146); assay: Radioligand binding competition assay (RLB); conditions: Table 3, 125I-PYY(1-36) competition; read-out: Ki
T1 construct: purchased CHEMICON HTS066M
T1 sequence (P49146 1-381): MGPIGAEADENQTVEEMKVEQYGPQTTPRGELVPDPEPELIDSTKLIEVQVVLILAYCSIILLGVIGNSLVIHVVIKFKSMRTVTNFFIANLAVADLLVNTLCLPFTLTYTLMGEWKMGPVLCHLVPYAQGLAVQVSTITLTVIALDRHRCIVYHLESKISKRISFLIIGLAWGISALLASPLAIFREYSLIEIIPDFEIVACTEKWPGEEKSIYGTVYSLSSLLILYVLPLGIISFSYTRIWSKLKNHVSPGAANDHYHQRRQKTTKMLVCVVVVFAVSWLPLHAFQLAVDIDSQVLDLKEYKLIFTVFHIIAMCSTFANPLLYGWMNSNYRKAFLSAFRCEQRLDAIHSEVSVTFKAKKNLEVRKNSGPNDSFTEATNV
Summary of the method: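 Competition binding used membranes expressing the receptor (0.5 μg protein/well) in 50 mM HEPES, 5 mM MgCl2, 1 mM CaCl2, pH 7.4 with 0.2% ovalbumin, incubated 2 h at room temperature with shaking. Bound radioligand was collected by filtration onto PEI-soaked GF/C filters and counted; IC50 from nonlinear sigmoidal fits.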

Solubility determination = conditions: for Sol6: pH 6; for Sol7: pH 7
Summary of the method: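 First, TFA-salt peptide was added to 0.1 M sodium diphosphate (pH 6.4 or 7.0) to 10 mg/ml and shaken 2 h at room temperature. Next, insoluble material was filtered off. Finally, filtrate and control, each 1 mg/ml in 50% acetonitrile, were compared by reversed-phase chromatography.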

Row | SMILES | Ki [1] [nM] | Sol6 (Solubility determination) [mg/mL] | Sol7 (Solubility determination) [mg/mL]
1 | CC(C)CC(=O)N[C@@H](C)C(=O)N1CCC[C@H]1C(=O)N[C@@H](C)C(=O)N[C@@H](CCCCNC(=O)CCCCCNC(=O)CC[C@H](NC(=O)CCCCCCCCCCCCCCCCC(=O)O)C(=O)O)C(=O)N1CCC[C@H]1C(=O)N[C@@H](CCC(=O)O)C(=O)N[C@@H](CCC(=O)O)C(=O)N[C@@H](CCC(=O)O)C(=O)N[C@@H](C)C(=O)N[C@@H](CO)C(=O)N1CCC[C@H]1C(=O)N[C@@H](CCC(=O)O)C(=O)N[C@@H](CCC(=O)O)C(=O)N[C@@H](CC(C)C)C(=O)N[C@@H](CCC(N)=O)C(=O)N[C@@H](CCCNC(=N)N)C(=O)N[C@@H](Cc1ccc(O)cc1)C(=O)N[C@@H](Cc1ccc(O)cc1)C(=O)N[C@H](C(=O)N[C@@H](CO)C(=O)N[C@@H](CC(C)C)C(=O)N[C@@H](CCCNC(=N)N)C(=O)N[C@@H](Cc1c[nH]cn1)C(=O)N[C@@H](Cc1ccc(O)cc1)C(=O)N[C@@H](Cc1ccc(O)cc1)C(=O)N[C@@H](CC(N)=O)C(=O)N[C@@H](Cc1c[nH]c2ccccc12)C(=O)N[C@@H](CC(C)C)C(=O)N[C@H](C(=O)N[C@@H](CCCNC(=N)N)C(=O)N[C@@H](CCC(N)=O)C(=O)N[C@@H](CCCNC(=N)N)C(=O)N[C@@H](Cc1ccc(O)cc1)C(N)=O)[C@@H](C)O)C(C)C [Compound 199, N{alpha-4}-(3-methylbutanoyl)-N{epsilon-7}-(6-[(4S)-4-carboxy-4-(17-carboxyheptadecanamido)butanamido]hexanoyl)-[4A,6A,7K,9E,11E,18Q,22V,28Y,30W,31L]-hPYY(4-36)] | 2.87 | 9.0 | 9.1
2 | CC[C@H](C)[C@H](NC(=O)[C@H](CCC(=O)O)NC(=O)[C@H](CCC(=O)O)NC(=O)[C@@H]1CCCN1C(=O)[C@H](CCCCNC(=O)CCCCCNC(=O)CC[C@H](NC(=O)CCCCCCCCCCCCCCCCC(=O)O)C(=O)O)NC(=O)[C@H](CCC(=O)O)NC(=O)[C@@H]1CCCN1C(=O)[C@H](C)NC(=O)CC(C)C)C(=O)N[C@@H](C)C(=O)N[C@H](C(=O)N1CCC[C@H]1C(=O)N[C@@H](CCC(=O)O)C(=O)N[C@@H](CCC(=O)O)C(=O)N[C@@H](CC(C)C)C(=O)N[C@@H](CCC(N)=O)C(=O)N[C@@H](CCCNC(=N)N)C(=O)N[C@@H](Cc1ccc(O)cc1)C(=O)N[C@@H](Cc1ccc(O)cc1)C(=O)N[C@H](C(=O)N[C@@H](CO)C(=O)N[C@@H](CC(C)C)C(=O)N[C@@H](CCCNC(=N)N)C(=O)N[C@@H](Cc1c[nH]cn1)C(=O)N[C@@H](Cc1ccc(O)cc1)C(=O)N[C@@H](Cc1ccc(O)cc1)C(=O)N[C@@H](CC(N)=O)C(=O)N[C@@H](Cc1c[nH]c2ccccc12)C(=O)N[C@@H](CC(C)C)C(=O)N[C@H](C(=O)N[C@@H](CCCNC(=N)N)C(=O)N[C@@H](CCC(N)=O)C(=O)N[C@@H](CCCNC(=N)N)C(=O)N[C@@H](Cc1ccc(O)cc1)C(N)=O)[C@@H](C)O)C(C)C)[C@@H](C)O [Compound 45, N{alpha-4}-(3-methylbutanoyl)-N{epsilon-7}-(6-[(4S)-4-carboxy-4-(17-carboxyheptadecanamido)butanamido]hexanoyl)-[4A,7K,9E,11I,13T,18Q,22V,28Y,30W,31L]-hPYY(4-36)] | 6.17 | >10.0 | >10.0
3 | CC(C)CC(=O)N[C@@H](C)C(=O)N1CCC[C@H]1C(=O)N[C@@H](CCC(=O)O)C(=O)N[C@@H](CCCCNC(=O)CCCCCNC(=O)CC[C@H](NC(=O)CCCCCCCCCCCCCCCCC(=O)O)C(=O)O)C(=O)N1CCC[C@H]1C(=O)N[C@@H](CCC(=O)O)C(=O)N[C@@H](CCC(=O)O)C(=O)N[C@@H](CC(=O)O)C(=O)N[C@@H](C)C(=O)N[C@H](C(=O)N1CCC[C@H]1C(=O)N[C@@H](CCC(=O)O)C(=O)N[C@@H](CCC(=O)O)C(=O)N[C@@H](CC(C)C)C(=O)N[C@@H](CCC(N)=O)C(=O)N[C@@H](CCCNC(=N)N)C(=O)N[C@@H](Cc1ccc(O)cc1)C(=O)N[C@@H](Cc1ccc(O)cc1)C(=O)N[C@H](C(=O)N1CCC[C@H]1C(=O)N[C@@H](CC(C)C)C(=O)N[C@@H](CCCNC(=N)N)C(=O)N[C@@H](Cc1c[nH]cn1)C(=O)N[C@@H](Cc1ccc(O)cc1)C(=O)N[C@@H](Cc1ccc(O)cc1)C(=O)N[C@@H](CC(N)=O)C(=O)N[C@@H](Cc1c[nH]c2ccccc12)C(=O)N[C@@H](CC(C)C)C(=O)N[C@H](C(=O)N[C@@H](CCCNC(=N)N)C(=O)N[C@@H](CCC(N)=O)C(=O)N[C@@H](CCCNC(=N)N)C(=O)N[C@@H](Cc1ccc(O)cc1)C(N)=O)[C@@H](C)O)C(C)C)[C@@H](C)O [Compound 87, N{alpha-4}-(3-methylbutanoyl)-N{epsilon-7}-(6-[(4S)-4-carboxy-4-(17-carboxyheptadecanamido)butanamido]hexanoyl)-[4A,7K,9E,13T,18Q,22V,23P,28Y,30W,31L]-hPYY(4-36)] | 22.4 | 9.7 | 9.7
4 | CC(C)CC(=O)N[C@@H](C)C(=O)N1CCC[C@H]1C(=O)N[C@@H](CCC(=O)O)C(=O)N[C@@H](CCCCNC(=O)CCCCCNC(=O)CC[C@H](NC(=O)CCCCCCCCCCCCCCCCC(=O)O)C(=O)O)C(=O)N1CCC[C@H]1C(=O)N[C@@H](CCC(=O)O)C(=O)N[C@@H](C)C(=O)N[C@@H](CC(=O)O)C(=O)N[C@@H](C)C(=O)N[C@@H](CO)C(=O)N1CCC[C@H]1C(=O)N[C@@H](CCC(=O)O)C(=O)N[C@@H](CCC(=O)O)C(=O)N[C@H](C(=O)N[C@@H](CCC(N)=O)C(=O)N[C@@H](CCCNC(=N)N)C(=O)N[C@@H](Cc1ccc(O)cc1)C(=O)N[C@@H](Cc1ccc(O)cc1)C(=O)N[C@H](C(=O)N[C@@H](C)C(=O)N[C@@H](CC(C)C)C(=O)N[C@@H](CCCNC(=N)N)C(=O)N[C@@H](Cc1c[nH]cn1)C(=O)N[C@@H](Cc1ccc(O)cc1)C(=O)N[C@@H](Cc1ccc(O)cc1)C(=O)N[C@@H](CC(N)=O)C(=O)N[C@@H](Cc1c[nH]c2ccccc12)C(=O)N[C@@H](CC(C)C)C(=O)N[C@H](C(=O)N[C@@H](CCCNC(=N)N)C(=O)N[C@@H](CCC(N)=O)C(=O)N[C@@H](CCCNC(=N)N)C(=O)N[C@@H](Cc1ccc(O)cc1)C(N)=O)[C@@H](C)O)C(C)C)[C@@H](C)O [Compound 179, N{alpha-4}-(3-methylbutanoyl)-N{epsilon-7}-(6-[(4S)-4-carboxy-4-(17-carboxyheptadecanamido)butanamido]hexanoyl)-[4A,7K,9E,10A,17T,18Q,22V,23A,28Y,30W,31L]-hPYY(4-36)] | 0.89 | 8.1 | 8.3
5 | CC(C)CC(=O)N[C@@H](C)C(=O)N1CCC[C@H]1C(=O)N[C@@H](C)C(=O)N[C@@H](CCCCNC(=O)CCCCCNC(=O)CC[C@H](NC(=O)CCCCCCCCCCCCCCCCC(=O)O)C(=O)O)C(=O)N1CCC[C@H]1C(=O)N[C@@H](CCC(=O)O)C(=O)N[C@@H](CCC(=O)O)C(=O)N[C@@H](C)C(=O)N[C@@H](C)C(=O)N[C@@H](CO)C(=O)N1CCC[C@H]1C(=O)N[C@@H](CCC(=O)O)C(=O)N[C@@H](CCC(=O)O)C(=O)N[C@@H](CC(C)C)C(=O)N[C@@H](CCC(N)=O)C(=O)N[C@@H](CCCNC(=N)N)C(=O)N[C@@H](Cc1ccc(O)cc1)C(=O)N[C@@H](Cc1ccc(O)cc1)C(=O)N[C@H](C(=O)N[C@@H](C)C(=O)N[C@@H](CC(C)C)C(=O)N[C@@H](CCCNC(=N)N)C(=O)N[C@@H](Cc1c[nH]cn1)C(=O)N[C@@H](Cc1ccc(O)cc1)C(=O)N[C@@H](Cc1ccc(O)cc1)C(=O)N[C@@H](CC(N)=O)C(=O)N[C@@H](Cc1c[nH]c2ccccc12)C(=O)N[C@@H](CC(C)C)C(=O)N[C@H](C(=O)N[C@@H](CCCNC(=N)N)C(=O)N[C@@H](CCC(N)=O)C(=O)N[C@@H](CCCNC(=N)N)C(=O)N[C@@H](Cc1ccc(O)cc1)C(N)=O)[C@@H](C)O)C(C)C [Compound 157, N{alpha-4}-(3-methylbutanoyl)-N{epsilon-7}-(6-[(4S)-4-carboxy-4-(17-carboxyheptadecanamido)butanamido]hexanoyl)-[4A,6A,7K,9E,11A,18Q,22V,23A,28Y,30W,31L]-hPYY(4-36)] | 1.68 | 0.0 | 0.3
